Measurements as given in patent US20260174875A1 (Novo Nordisk A/S, priority 2023, published 2026).
Numbered stars: 1 amine (or outer) side, 2 acyl side, 3 side chain; on linkers, the order of the positions; unused ones are H or OH. Square brackets hold non-standard residues; d marks the D form. Side chains are listed from the residue outwards. * marks the point of attachment. C18 diacid = O=C(O)CCCCCCCCCCCCCCCCC(=O)*; C16 diacid = O=C(O)CCCCCCCCCCCCCCC(=O)*; γGlu = O=C(O)[C@H](CCC(=O)[*:2])N[*:1]; AEEA = NCCOCCOCC(=O)O; Aib = CC(C)(N)C(=O)O

target: T1, human GIP receptor (hGIPR) (Homo sapiens, UniProt P48546); assay: GIP receptor assay, method A (CRE-luciferase reporter, BHK cells); assay type: cell-based; details: hGIPR Potency, 1% HSA, EC50, method A, in the presence of 1% HSA
T1 construct: expressed in transfected cells
T1 sequence (P48546 22-466): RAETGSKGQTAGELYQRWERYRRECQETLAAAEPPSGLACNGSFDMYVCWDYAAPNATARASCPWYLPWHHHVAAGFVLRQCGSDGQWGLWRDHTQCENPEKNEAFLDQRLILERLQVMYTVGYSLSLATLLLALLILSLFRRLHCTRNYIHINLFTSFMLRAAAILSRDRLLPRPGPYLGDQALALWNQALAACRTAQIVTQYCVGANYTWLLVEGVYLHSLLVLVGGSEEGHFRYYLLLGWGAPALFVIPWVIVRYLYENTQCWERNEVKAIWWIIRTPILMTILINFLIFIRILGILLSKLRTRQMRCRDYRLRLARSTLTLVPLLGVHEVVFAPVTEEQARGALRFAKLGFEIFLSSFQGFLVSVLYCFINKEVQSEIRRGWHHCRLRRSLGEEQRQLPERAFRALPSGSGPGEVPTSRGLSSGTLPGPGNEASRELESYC
How it was run: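 BHK cells co-expressing hGIPR and a CRE-luciferase reporter were stimulated for 3 h at 37 °C with a 7-point, 10-fold compound titration in duplicate. Buffer was DMEM, 10 mM HEPES, 1% ovalbumin, 0.1% Pluronic F-68, without HSA or with 1% (w/v) HSA. EC50 [pM] came from four-parameter logistic fits of luminescence.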

Compared with “H[Aib]HGTFTSDYSILLEEQAAREFIEWLLAGGPSK([AEEA-AEEA-γGlu-C16 diacid])GAPPPSGGGEASELSTAALGRLSAELHELATLPRTETGSGSP-NH2 [Compound 12]”, “H[Aib]HGTFTSDYSILLEEQAAREFIEWLLAGGPSK([AEEA-AEEA-γGlu-C16 diacid])GAPPPSGGGEASHLSTAQTARLSAELHRLADLPRTETGSGSP-NH2 [Compound 61]” is 3.7-fold lower in EC50: 0.0591 nM for the first, 0.016 nM for the second. The second is the more potent here.

“H[Aib]HGTFTSDYSILLEEQAAREFIEWLLAGGPSK([AEEA-AEEA-γGlu-C16 diacid])GEASELSTAALGRLSAELHRLATLPRTETGSGSP-NH2 [Compound 17]” and “H[Aib]HGTFTSDYSILLEEQAAREFIEWLLAGGPSK([AEEA-AEEA-γGlu-C16 diacid])GEASQLSTAALGRLSAELHRLADLPRTETGSGSP-NH2 [Compound 62]” are within 1.5-fold of each other in EC50: 0.0369 nM for the first, 0.0472 nM for the second.

In the case of “H[Aib]HGTFTSDYSILLEEQAAREFIEWLLAGGPSK([AEEA-AEEA-γGlu-C18 diacid])GAPPPSGGGEASELSTAALGRLSAELHELATLPRTETGSGSP-NH2 [Compound 15]”, the EC50 is reported as 0.356 nM.

same assay, conditions: hGIPR Potency, no HSA, EC50, method A, absence of HSA

First: H[Aib]HGTFTSDYSILLEEQAAREFIEWLLAGGPSK([AEEA-AEEA-γGlu-C16 diacid])GAPPPSGGGEASHLSTAQTARLSAELHRLADLPRTETGSGSP-NH2 [Compound 61]
Second: H[Aib]HGTFTSDYSILLEEQAAREFIEWLLAGGPSK([AEEA-AEEA-γGlu-C16 diacid])GEASQLSTAALGRLSAELHRLADLPRTETGSGSP-NH2 [Compound 62]
The EC50 of the first is 1.7-fold lower: 0.0013 nM for the first, 0.00226 nM for the second.

same assay, conditions: method A, absence of HSA; read-out: hGIPR Potency, no HSA, EC50

Compared with “H[Aib]HGTFTSDYSILLEEQAAREFIEWLLAGGPSK([AEEA-AEEA-γGlu-C16 diacid])GAPPPSGGGEASELSTAALGRLSAELHELATLPRTETGSGSP-NH2 [Compound 12]”, “H[Aib]HGTFTSDYSILLEEQAAREFIEWLLAGGPSK([AEEA-AEEA-γGlu-C16 diacid])GEASELSTAALGRLSAELHRLATLPRTETGSGSP-NH2 [Compound 17]” is 1.9-fold higher in EC50: 0.00262 nM for the first, 0.00504 nM for the second.

Work on “H[Aib]HGTFTSDYSILLEEQAAREFIEWLLAGGPSK([AEEA-AEEA-γGlu-C18 diacid])GAPPPSGGGEASELSTAALGRLSAELHELATLPRTETGSGSP-NH2 [Compound 15]” yielded an EC50 of 0.0032 nM.

test system: Male Sprague Dawley (SD) rats; assay: Efficacy testing on appetite: acute food intake in ad libitum fed normal weight rats; assay type: in vivo, rat; details: single dose 10 nmol/kg, day 1 [0-24 hours]
Description: Male Sprague Dawley (SD) rats from Taconic, Denmark were used for the acute food intake experiments, wherein the principles of laboratory animal care were followed.
The rats arrived at least 10-14 days before the start of the experiment to allow acclimatization to experimental settings. During this period, the animals were handled (fixation by restrain in neck skin) at least 2 times. Immediately upon arrival, rats were changed to a reversed light cycle (dark from 11 am-11 pm) and were transferred to an automated food intake measuring system (HM2 system, MBRose; Faaborg, Denmark). […] To enable recording of individual food intake, rats were ID chipped. Three rats were housed in each cage. During the acclimatization period, in which the rats get used to the new light cycle and diet (LF 10% (D12450B), from Research Diets Inc.), the animals had free access to food and water. Since rats are normally active and consume most of their daily calories during the dark period, rats were dosed in the morning right before lights were turned off. Such a set-up results in the lowest data variation and highest test sensitivity. […] In each cage there were animals from three different treatment groups (to eliminate potential cage effects (e.g. cage malfunction) on primary readout: food intake). The rats were dosed once subcutaneously (s.c.) with the peptide of interest according to body weight (10 or 30 nmol/kg) in vehicle (0.5 ml/kg) using a NovoPen® (Novo Nordisk, Bagsvæed, Denmark).
The compounds of the invention were formulated (20 or 60 nmol/ml) in the following vehicle: 8 mM phosphate; 250 mM glycerol; 0.007% polysorbate 20, pH 7.4.
After dosing, the rats were returned to their home cages, where they continued to have ad libitum access to chow and water. The food consumption was recorded individually and continuously by the HM2 system from 0-72 h after test compound administration. Data obtained by the HM-2 system were stored in a HMBase SQL database (Firebird® relational database management system) and were processed by HM2Lab software (MBRose; Faaborg, Denmark) installed in an embedded computer. The feeding system is a highly sensitive system with a load resolution of 0.001 g.

First: H[Aib]HGTFTSDYSILLEEQAAREFIEWLLAGGPSK([AEEA-AEEA-γGlu-C16 diacid])GAPPPSGGGEASELSTAALGRLSAELHELATLPRTETGSGSP-NH2 [Compound 12]
Second: H[Aib]HGTFTSDYSILLEEQAAREFIEWLLAGGPSK([AEEA-AEEA-γGlu-C16 diacid])GAPPPSGGGEASHLSTAQTARLSAELHRLADLPRTETGSGSP-NH2 [Compound 61]
The “Food intake (relative to vehicle) Day 1” value of the first is higher: −70% for the first, −86% for the second.

First: H[Aib]HGTFTSDYSILLEEQAAREFIEWLLAGGPSK([AEEA-AEEA-γGlu-C16 diacid])GEASELSTAALGRLSAELHRLATLPRTETGSGSP-NH2 [Compound 17]
Second: H[Aib]HGTFTSDYSILLEEQAAREFIEWLLAGGPSK([AEEA-AEEA-γGlu-C16 diacid])GEASQLSTAALGRLSAELHRLADLPRTETGSGSP-NH2 [Compound 62]
The “Food intake (relative to vehicle) Day 1” value of the first is lower: −84% for the first, −74% for the second.

In the case of “H[Aib]HGTFTSDYSILLEEQAAREFIEWLLAGGPSK([AEEA-AEEA-γGlu-C18 diacid])GAPPPSGGGEASELSTAALGRLSAELHELATLPRTETGSGSP-NH2 [Compound 15]”, the “Food intake (relative to vehicle) Day 1” value is reported as −30%.

same assay, conditions: single dose 10 nmol/kg, day 2 [24-48 hours]

Going from “H[Aib]HGTFTSDYSILLEEQAAREFIEWLLAGGPSK([AEEA-AEEA-γGlu-C16 diacid])GAPPPSGGGEASELSTAALGRLSAELHELATLPRTETGSGSP-NH2 [Compound 12]” to “H[Aib]HGTFTSDYSILLEEQAAREFIEWLLAGGPSK([AEEA-AEEA-γGlu-C16 diacid])GAPPPSGGGEASHLSTAQTARLSAELHRLADLPRTETGSGSP-NH2 [Compound 61]”, the “Food intake (relative to vehicle) Day 2” value falls from −39% to −92%.

Compared with “H[Aib]HGTFTSDYSILLEEQAAREFIEWLLAGGPSK([AEEA-AEEA-γGlu-C16 diacid])GEASELSTAALGRLSAELHRLATLPRTETGSGSP-NH2 [Compound 17]”, “H[Aib]HGTFTSDYSILLEEQAAREFIEWLLAGGPSK([AEEA-AEEA-γGlu-C16 diacid])GEASQLSTAALGRLSAELHRLADLPRTETGSGSP-NH2 [Compound 62]” is higher in “Food intake (relative to vehicle) Day 2” value: −78% for the first, −42% for the second.

“H[Aib]HGTFTSDYSILLEEQAAREFIEWLLAGGPSK([AEEA-AEEA-γGlu-C18 diacid])GAPPPSGGGEASELSTAALGRLSAELHELATLPRTETGSGSP-NH2 [Compound 15]” was tested, and the “Food intake (relative to vehicle) Day 2” value was −42%.

same assay, conditions: single dose 10 nmol/kg, day 3 [48-72 hours]

First: H[Aib]HGTFTSDYSILLEEQAAREFIEWLLAGGPSK([AEEA-AEEA-γGlu-C16 diacid])GAPPPSGGGEASELSTAALGRLSAELHELATLPRTETGSGSP-NH2 [Compound 12]
Second: H[Aib]HGTFTSDYSILLEEQAAREFIEWLLAGGPSK([AEEA-AEEA-γGlu-C16 diacid])GAPPPSGGGEASHLSTAQTARLSAELHRLADLPRTETGSGSP-NH2 [Compound 61]
The “Food intake (relative to vehicle) Day 3” value of the first is higher: −8% for the first, −34% for the second.

Compared with “H[Aib]HGTFTSDYSILLEEQAAREFIEWLLAGGPSK([AEEA-AEEA-γGlu-C16 diacid])GEASELSTAALGRLSAELHRLATLPRTETGSGSP-NH2 [Compound 17]”, “H[Aib]HGTFTSDYSILLEEQAAREFIEWLLAGGPSK([AEEA-AEEA-γGlu-C16 diacid])GEASQLSTAALGRLSAELHRLADLPRTETGSGSP-NH2 [Compound 62]” is lower in “Food intake (relative to vehicle) Day 3” value: −11% for the first, −13% for the second.

For “H[Aib]HGTFTSDYSILLEEQAAREFIEWLLAGGPSK([AEEA-AEEA-γGlu-C18 diacid])GAPPPSGGGEASELSTAALGRLSAELHELATLPRTETGSGSP-NH2 [Compound 15]”, the “Food intake (relative to vehicle) Day 3” value was −9%.
